Assays:
Gemcitabine = compound: Nc1ccn([C@@H]2O[C@H](CO)[C@@H](O)C2(F)F)c(=O)n1 [Gemcitabine]; conditions: max 0.3 µM
Summary of the method: (§1)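 Cancer cell lines in 1536-well plates (7.5 μl DMEM/F12 or RPMI, 10% FBS) were held 24 hours at 37°C and 5% CO2 and then dosed for 72 hours at a final DMSO of typically 0.2%. Viability was taken from CellTiter-Glo 2.0 luminescence, scaled between blank-well and DMSO-well means. Curves were fitted as two-parameter logistic models with a non-linear mixed effects model, from which the single-agent IC50 was taken.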

Trametinib = compound: CC(=O)Nc1cccc(-n2c(=O)n(C3CC3)c(=O)c3c(Nc4ccc(I)cc4F)n(C)c(=O)c(C)c32)c1 [Trametinib]; conditions: max 1 µM
Summary of the method: as §1

Doxorubicin = compound: COc1cccc2c1C(=O)c1c(O)c3c(c(O)c1C2=O)C[C@@](O)(C(=O)CO)C[C@@H]3O[C@H]1C[C@H](N)[C@H](O)[C@H](C)O1 [Doxorubicin]; conditions: max 1 µM
Summary of the method: as §1

Prexasertib = compound: COc1cccc(OCCCN)c1-c1cc(Nc2cnc(C#N)cn2)n[nH]1 [Prexasertib]; conditions: max 1 µM
Summary of the method: as §1

AZD1775 = compound: C=CCn1c(=O)c2cnc(Nc3ccc(N4CCN(C)CC4)cc3)nc2n1-c1cccc(C(C)(C)O)n1 [AZD1775]; conditions: max 3 µM
Summary of the method: as §1

Taselisib = compound: Cc1nc(-c2cn3c(n2)-c2ccc(-c4cnn(C(C)(C)C(N)=O)c4)cc2OCC3)n(C(C)C)n1 [Taselisib]; conditions: max 10 µM
Summary of the method: as §1

SN-38 = compound: CCc1c2c(nc3ccc(O)cc13)-c1cc3c(c(=O)n1C2)COC(=O)[C@]3(O)CC [SN-38]; conditions: max 0.3 µM
Summary of the method: as §1

SG3199 = compound: CC1=CN2[C@@H](C1)C=NC3=CC(=C(C=C3C2=O)OC)OCCCCCOC4=C(C=C5C(=C4)N=C[C@@H]6CC(=CN6C5=O)C)OC [SG3199]; conditions: max 0.001 µM
Summary of the method: as §1

Gefitinib = compound: COc1cc2ncnc(Nc3ccc(F)c(Cl)c3)c2cc1OCCCN1CCOCC1 [Gefitinib]; conditions: max 10 µM
Summary of the method: as §1

AZD8186 = compound: C[C@@H](Nc1cc(F)cc(F)c1)c1cc(C(=O)N(C)C)cc2c(=O)cc(N3CCOCC3)oc12 [AZD8186]; conditions: max 10 µM
Summary of the method: as §1

Savolitinib = compound: C[C@@H](c1ccc2nccn2c1)n1nnc2ncc(-c3cnn(C)c3)nc21 [Savolitinib]; conditions: max 1 µM
Summary of the method: as §1

AZD2811 = compound: CCN(CCO)CCCOc1ccc2c(Nc3cc(CC(=O)Nc4cccc(F)c4)[nH]n3)ncnc2c1 [AZD2811]; conditions: max 1 µM
Summary of the method: as §1

AZD5991 = compound: Cc1c2c(nn1C)CSCc1cc(n(C)n1)CSc1cc(c3ccccc3c1)OCCCc1c(C(=O)O)n(C)c3c-2c(Cl)ccc13 [AZD5991]; conditions: max 1 µM
Summary of the method: as §1

5-Fluorouracil = compound: O=c1[nH]cc(F)c(=O)[nH]1 [5-Fluorouracil]; conditions: max 20 µM
Summary of the method: as §1

AZD1390 = compound: CC(C)n1c(=O)n(C)c2cnc3cc(F)c(-c4ccc(OCCCN5CCCCC5)nc4)cc3c21 [AZD1390]; conditions: max 0.3 µM
Summary of the method: as §1

AZD7648 = compound: Cc1cc2ncnn2cc1Nc1ncc2c(n1)n(C1CCOCC1)c(=O)n2C [AZD7648]; conditions: max 10 µM
Summary of the method: as §1

Carboplatin = compound: C1CC(C1)(C(=O)[O-])C(=O)[O-].N.N.[Pt+2] [Carboplatin]; conditions: max 10 µM
Summary of the method: as §1

Lapatinib = compound: CS(=O)(=O)CCNCc1ccc(-c2ccc3ncnc(Nc4ccc(OCc5cccc(F)c5)c(Cl)c4)c3c2)o1 [Lapatinib]; conditions: max 10 µM
Summary of the method: as §1

AZD0156 = compound: CN(C)CCCOc1ccc(-c2ccc3ncc4c(c3c2)n(C2CCOCC2)c(=O)n4C)cn1 [AZD0156]; conditions: max 3 µM
Summary of the method: as §1

[1] = compound: O=C(Nc1ccc2[nH]nc(-c3ccncc3)c2c1)[C@@H]1CCN(CC(=O)N2CCN(c3ccc(-c4ncccn4)cc3)CC2)C1; conditions: max 5 µM
Summary of the method: as §1

Venetoclax = compound: CC1(C)CCC(CN2CCN(c3ccc(C(=O)NS(=O)(=O)c4ccc(NCC5CCOCC5)c([N+](=O)[O-])c4)c(Oc4cnc5[nH]ccc5c4)c3)CC2)=C(c2ccc(Cl)cc2)C1 [Venetoclax]; conditions: max 1 µM
Summary of the method: as §1

AZD6738 = compound: C[C@@H]1COCCN1C2=NC(=NC(=C2)C3(CC3)[S@](=N)(=O)C)C4=C5C=CNC5=NC=C4 [AZD6738]; conditions: max 10 µM
Summary of the method: as §1

SRA737 = compound: N#Cc1cnc(Nc2cc(NC[C@H]3CNCCO3)c(C(F)(F)F)cn2)cn1 [SRA737]; conditions: max 10 µM
Summary of the method: as §1

AZD5153 = compound: COc1nnc2ccc(N3CCC(c4ccc(OCCN5CCN(C)C(=O)[C@H]5C)cc4)CC3)nn12 [AZD5153]; conditions: max 1 µM
Summary of the method: as §1

Paclitaxel = compound: CC(=O)O[C@H]1C(=O)[C@@]2(C)[C@H]([C@H](OC(=O)c3ccccc3)[C@]3(O)C[C@H](OC(=O)[C@H](O)[C@@H](NC(=O)c4ccccc4)c4ccccc4)C(C)=C1C3(C)C)[C@]1(OC(C)=O)CO[C@@H]1C[C@@H]2O [Paclitaxel]; conditions: max 3 µM
Summary of the method: as §1

AZD4320 = compound: CN(CC[C@H](CSC1=CC=CC=C1)NC2=C(C=C(C=C2)S(=O)(=O)NC(=O)C3=CC=C(C=C3)N4CCC(CC4)[C@H](C5=CC=CC=C5C6=CC=C(C=C6)Cl)O)S(=O)(=O)C(F)(F)F)CCO [AZD4320]; conditions: max 1 µM
Summary of the method: as §1

Alisertib = compound: COc1cc(Nc2ncc3c(n2)-c2ccc(Cl)cc2C(c2c(F)cccc2OC)=NC3)ccc1C(=O)O [Alisertib]; conditions: max 10 µM
Summary of the method: as §1

Olaparib = compound: O=C(c1cc(Cc2n[nH]c(=O)c3ccccc23)ccc1F)N1CCN(C(=O)C2CC2)CC1 [Olaparib]; conditions: max 10 µM
Summary of the method: as §1

Selumetinib = compound: Cn1cnc2c(F)c(Nc3ccc(Br)cc3Cl)c(C(=O)NOCCO)cc21 [Selumetinib]; conditions: max 10 µM
Summary of the method: as §1

Crizotinib = compound: C[C@@H](Oc1cc(-c2cnn(C3CCNCC3)c2)cnc1N)c1c(Cl)ccc(F)c1Cl [Crizotinib]; conditions: max 10 µM
Summary of the method: as §1

Palbociclib = compound: CC(=O)c1c(C)c2cnc(Nc3ccc(N4CCNCC4)cn3)nc2n(C2CCCC2)c1=O [Palbociclib]; conditions: max 10 µM
Summary of the method: as §1

MK-2206 = compound: NC1(c2ccc(-c3nc4ccn5c(=O)[nH]nc5c4cc3-c3ccccc3)cc2)CCC1 [MK-2206]; conditions: max 10 µM
Summary of the method: as §1

Dasatinib = compound: CC1=C(C(=CC=C1)Cl)NC(=O)C2=CN=C(S2)NC3=CC(=NC(=N3)C)N4CCN(CC4)CCO [Dasatinib]; conditions: max 2 µM
Summary of the method: as §1

Etoposide = compound: COc1cc([C@@H]2c3cc4c(cc3[C@@H](O[C@@H]3O[C@@H]5CO[C@@H](C)O[C@H]5[C@H](O)[C@H]3O)[C@H]3COC(=O)[C@H]23)OCO4)cc(OC)c1O [Etoposide]; conditions: max 10 µM
Summary of the method: as §1

AZD5363 = compound: C1CN(CCC1(C(=O)N[C@@H](CCO)C2=CC=C(C=C2)Cl)N)C3=NC=NC4=C3C=CN4 [AZD5363]; conditions: max 10 µM
Summary of the method: as §1

Row | Cell Line | IC50, cell viability 72 h (Gemcitabine) [µM] | IC50, cell viability 72 h (Trametinib) [µM] | IC50, cell viability 72 h (Doxorubicin) [µM] | IC50, cell viability 72 h (Prexasertib) [µM] | IC50, cell viability 72 h (AZD1775) [µM] | IC50, cell viability 72 h (Taselisib) [µM] | IC50, cell viability 72 h (SN-38) [µM] | IC50, cell viability 72 h (SG3199) [µM] | IC50, cell viability 72 h (Gefitinib) [µM] | IC50, cell viability 72 h (AZD8186) [µM] | IC50, cell viability 72 h (Savolitinib) [µM] | IC50, cell viability 72 h (AZD2811) [µM] | IC50, cell viability 72 h (AZD5991) [µM] | IC50, cell viability 72 h (5-Fluorouracil) [µM] | IC50, cell viability 72 h (AZD1390) [µM] | IC50, cell viability 72 h (AZD7648) [µM] | IC50, cell viability 72 h (Carboplatin) [µM] | IC50, cell viability 72 h (Lapatinib) [µM] | IC50, cell viability 72 h (AZD0156) [µM] | IC50, cell viability 72 h [1] [µM] | IC50, cell viability 72 h (Venetoclax) [µM] | IC50, cell viability 72 h (AZD6738) [µM] | IC50, cell viability 72 h (SRA737) [µM] | IC50, cell viability 72 h (AZD5153) [µM] | IC50, cell viability 72 h (Paclitaxel) [µM] | IC50, cell viability 72 h (AZD4320) [µM] | IC50, cell viability 72 h (Alisertib) [µM] | IC50, cell viability 72 h (Olaparib) [µM] | IC50, cell viability 72 h (Selumetinib) [µM] | IC50, cell viability 72 h (Crizotinib) [µM] | IC50, cell viability 72 h (Palbociclib) [µM] | IC50, cell viability 72 h (MK-2206) [µM] | IC50, cell viability 72 h (Dasatinib) [µM] | IC50, cell viability 72 h (Etoposide) [µM] | IC50, cell viability 72 h (AZD5363) [µM]
1 | CAL-148 (Breast Carcinoma) | 0.0299 | > 1 | 0.0549 | 0.234 | 0.206 | 0.241 | 0.0025 | > 0.001 | > 10 | > 10 | > 1 | 0.0262 | > 1 | > 20 | > 0.3 | > 10 | > 10 | > 10 | > 3 | > 5 | > 1 | 3.82 | > 10 | 0.803 | 0.0452 | > 1 | 1.33 | > 10 | > 10 | > 10 | > 10 | 1.38 | > 2 | 0.59 | 0.274
2 | CCRF-CEM (T-Lymphoblastic Leukemia) | 0.0326 | > 1 | 0.0626 | 0.00326 | 0.134 | 7.25 | 0.00191 | > 0.001 | > 10 | > 10 | > 1 | 0.00651 | > 1 | > 20 | > 0.3 | > 10 | > 10 | > 10 | > 3 | > 5 | > 1 | 0.992 | 0.77 | 0.523 | 0.00487 | 0.0552 | 0.0737 | > 10 | > 10 | 1.55 | 1.95 | 3.98 | > 2 | 0.202 | 7.97
3 | CaR-1 (Colorectal Carcinoma) | 0.228 | > 1 | 0.957 | 0.279 | > 3 | 6.55 | 0.0282 | > 0.001 | > 10 | > 10 | > 1 | > 1 | > 1 | > 20 | > 0.3 | > 10 | > 10 | > 10 | > 3 | > 5 | > 1 | > 10 | > 10 | > 1 | 0.171 | > 1 | > 10 | > 10 | > 10 | > 10 | > 10 | > 10 | > 2 | > 10 | > 10
4 | Calu-3 (Lung Adenocarcinoma) | > 0.3 | > 1 | > 1 | > 1 | 2.89 | 2.79 | > 0.3 | > 0.001 | 3.73 | > 10 | > 1 | > 1 | > 1 | > 20 | > 0.3 | > 10 | > 10 | 1.78 | > 3 | > 5 | > 1 | > 10 | > 10 | 0.337 | > 3 | > 1 | > 10 | > 10 | > 10 | > 10 | > 10 | > 10 | > 2 | 5.55 | > 10
5 | DoTc2-4510 (Cervical Carcinoma) | > 0.3 | > 1 | 0.518 | 0.0595 | 2.9 | 4.86 | 0.00933 | > 0.001 | > 10 | > 10 | > 1 | > 1 | > 1 | > 20 | > 0.3 | > 10 | > 10 | > 10 | > 3 | > 5 | > 1 | > 10 | > 10 | > 1 | 0.456 | > 1 | > 10 | > 10 | > 10 | > 10 | > 10 | > 10 | > 2 | > 10 | > 10

— the supplement of paper PMC11061612
